Experiments:
anti-EUGs mAb [1] = experiment: broad-spectrum indirect competitive ELISA; format: binding, mice; settings: for CR (cross-reactivity): CR=[(IC50 eugenol)/(IC50 analog)]×100%; for LOD (IC10) / linear range (IC20–IC80): in buffer solution
[2] = National Toxicology Program; ref Li et al., 2015; cited from earlier work
anti-EUGs mAb [3] = experiment: antibody affinity by saturation concentration method; format: binding, mice; settings: mAb to eugenol
1B5 mAb = settings: previously reported mAb; ref [2] Lei et al., 2023; cited from earlier work
[4] = ref Li et al., 2015; cited from earlier work

Isoeugenol
CR (cross-reactivity) (anti-EUGs mAb [1]): 25460.0%
LOD (IC10) (anti-EUGs mAb [1]): 0.00935 ng/mL
linear range (IC20–IC80) (anti-EUGs mAb [1]): 0.026 to 0.865 ng/mL

COc1cc(C=O)ccc1O [Vanillin]
CR (cross-reactivity) (anti-EUGs mAb [1]): <0.4%

CCOC(=O)c1ccc(N)cc1 [Benzocaine]
CR (cross-reactivity) (anti-EUGs mAb [1]): <0.4%

CCc1ccc(O)c(OC)c1 [4-Ethyl-2-methoxyphenol]
CR (cross-reactivity) (anti-EUGs mAb [1]): 8.7%

COc1ccc(C=O)cc1OC [Veratraldehyde]
CR (cross-reactivity) (anti-EUGs mAb [1]): <0.4%

CC(C)c1cccc(C(C)C)c1O [Propofol]
CR (cross-reactivity) (anti-EUGs mAb [1]): <0.4%

C/C=C/c1ccc(OC)c(OC)c1 [Methyl isoeugenol]
CR (cross-reactivity) (anti-EUGs mAb [1]): 8679.5%
LOD (IC10) (anti-EUGs mAb [1]): 0.02 ng/mL
linear range (IC20–IC80) (anti-EUGs mAb [1]): 0.06 to 3.04 ng/mL

C=CCc1ccc(OC)c(OC)c1 [Methyl eugenol]
CR (cross-reactivity) (anti-EUGs mAb [1]): 4773.8%
LOD (IC10) (anti-EUGs mAb [1]): 0.06 ng/mL
linear range (IC20–IC80) (anti-EUGs mAb [1]): 0.15 to 4.30 ng/mL
liver cancer risk [2]: potential to elevate the risk of liver cancer

C=CCc1ccc(O)c(OC)c1 [Eugenol]
CR (cross-reactivity) (anti-EUGs mAb [1]): 100%
LOD (IC10) (anti-EUGs mAb [1]): 3.16 ng/mL
linear range (IC20–IC80) (anti-EUGs mAb [1]): 7.92 to 184.05 ng/mL
dissociation constant Ka (anti-EUGs mAb [3]; Ka is the inverse of Kd): 1.3e+09 L/mol
Kd (anti-EUGs mAb [3]; read-out: affinity constant Kd): 0.77 nM
IC50 of mAb 1B5 (1B5 mAb): 9.23 ng/mL
IARC carcinogen category [4]: Group 3 carcinogen

CCCCNc1ccc(C(=O)OCCN(C)C)cc1 [Tetracaine]
CR (cross-reactivity) (anti-EUGs mAb [1]): <0.4%

CCOC(=O)c1cccc(N)c1.CS(=O)(=O)O [Tricaine methanesulfonate]
CR (cross-reactivity) (anti-EUGs mAb [1]): <0.4%

COc1ccccc1O [Guaiacol]
CR (cross-reactivity) (anti-EUGs mAb [1]): <0.4%

Oc1ccccc1O [Catechol]
CR (cross-reactivity) (anti-EUGs mAb [1]): <0.4%

Source: PMC10912603 (Food Chemistry: X, 2024)
